Laboratory results reported in the supplement of paper PMC10307832.

Legend:
Test in all cases: relative viability (nuclei count vs DMSO), 5 days (fraction); higher = more cells survive
IDH-C35 + Lapatinib = compound: Cc1ccccc1C(C(=O)NC1CCCCC1)N(C(=O)Cn1ccnc1C)c1cccc(F)c1 [IDH-C35] + CS(=O)(=O)CCNCc1ccc(-c2ccc3ncnc(Nc4ccc(OCc5cccc(F)c5)c(Cl)c4)c3c2)o1 [Lapatinib] (partner 2 µM)
Summary of the method: (§1)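 A single step with final 0.05% Triton X-100, 1% formaldehyde and 1 ug/ml Hoechst fixed the cells and stained nuclei 5 days after treatment. Lung cancer cell lines in 1536-well plates had been treated by pin tool the day after seeding with one drug alone or a fixed anchor-drug dose plus five library-drug doses (not always all listed) in √10 steps, and nuclei were counted on 4× images. Relative viability is the ratio of nuclei in treated wells to nuclei in vehicle wells, taken as the median of duplicate plates.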

[1] = compound: CC1=C(C(=NN1)C)CC2=C(C3=C(S2)N(C(=O)N(C3=O)C)CC(C)C)C(=O)N4C[C@@H](CO4)O + N=C(N)NC(=N)NCCc1ccccc1 [Phenformin] (partner 250 µM)
Summary of the method: as §1

[2] = compound: CC1=C(C(=NN1)C)CC2=C(C3=C(S2)N(C(=O)N(C3=O)C)CC(C)C)C(=O)N4C[C@@H](CO4)O + O=C(CCCCCCC(=O)Nc1ccccc1)NO [Vorinostat] (partner 1 µM)
Summary of the method: as §1

IDH-C35 + Vorinostat = compound: Cc1ccccc1C(C(=O)NC1CCCCC1)N(C(=O)Cn1ccnc1C)c1cccc(F)c1 [IDH-C35] + O=C(CCCCCCC(=O)Nc1ccccc1)NO [Vorinostat] (partner 1 µM)
Summary of the method: as §1

Cell Line	relative viability (IDH-C35 + Lapatinib; first compound 0.08 µM)	relative viability (IDH-C35 + Lapatinib; first compound 0.253 µM)	relative viability (IDH-C35 + Lapatinib; first compound 0.8 µM)	relative viability (IDH-C35 + Lapatinib; first compound 2.53 µM)	relative viability (IDH-C35 + Lapatinib; first compound 8 µM)	relative viability ([1]; first compound 0.0025 µM)	relative viability ([1]; first compound 0.007906 µM)	relative viability ([1]; first compound 0.025 µM)	relative viability ([1]; first compound 0.07906 µM)	relative viability ([1]; first compound 0.25 µM)	relative viability ([2]; first compound 0.0025 µM)	relative viability ([2]; first compound 0.007906 µM)	relative viability ([2]; first compound 0.025 µM)	relative viability ([2]; first compound 0.07906 µM)	relative viability ([2]; first compound 0.25 µM)	relative viability (IDH-C35 + Vorinostat; first compound 0.08 µM)	relative viability (IDH-C35 + Vorinostat; first compound 0.253 µM)	relative viability (IDH-C35 + Vorinostat; first compound 0.8 µM)	relative viability (IDH-C35 + Vorinostat; first compound 2.53 µM)	relative viability (IDH-C35 + Vorinostat; first compound 8 µM)
NCI-H1975	0.833	0.86	0.85	0.974	0.928	0.401	0.426	0.401	0.389	0.376	0.754	0.743	0.729	0.747	0.786	0.73	0.726	0.701	0.716	0.649
CAL-12T	0.655	0.578	0.728	0.749	0.7	0.551	0.627	0.544	0.629	0.575	0.956	0.962	0.827	0.801	0.772	0.69	0.947	0.815	0.882	0.791
NCI-H1623	–	–	–	–	–	0.465	0.408	0.514	0.525	0.378	–	–	–	–	–	–	–	–	–	–
HCC-44	0.946	1.02	0.979	1.04	1.02	0.263	0.223	0.142	0.208	0.225	1.08	1.12	1.03	1.05	1.18	1.11	1.09	1.12	1.13	1.11
EKVX	0.201	0.205	0.208	0.183	0.205	0.241	0.224	0.233	0.243	0.227	0.863	0.756	0.806	0.604	0.416	0.876	0.678	0.769	0.738	0.698
NCI-H1651	0.849	0.828	0.954	1	0.76	0.374	0.214	0.259	0.239	0.261	0.504	0.601	0.505	0.545	0.581	0.539	0.592	0.531	0.513	0.543
NCI-H1944	0.858	0.824	0.81	0.774	0.832	0.184	0.222	0.186	0.195	0.175	0.6	0.704	0.576	0.522	0.594	0.496	0.613	0.474	0.538	0.566
NCI-H1703	1.06	1.06	0.866	0.831	1.1	–	–	–	–	–	–	–	–	–	–	–	–	–	–	–
Calu-6	1.04	1.04	1.03	1.06	1.01	–	–	–	–	–	–	–	–	–	–	–	–	–	–	–
EBC-1	0.24	0.228	0.24	0.232	0.236	–	–	–	–	–	–	–	–	–	–	–	–	–	–	–
SW 1573	1.2	1.26	1.09	1.05	1.09	0.239	0.236	0.115	0.123	0.117	0.795	0.714	0.792	0.679	0.782	0.859	0.851	0.7	0.588	0.666
A-427	1.03	0.978	0.942	1.02	1.03	0.301	0.264	0.24	0.375	0.349	0.899	0.895	0.865	0.826	0.929	0.868	0.796	0.848	0.901	0.856
NCI-H2347	0.99	0.969	0.914	0.902	0.804	0.455	0.429	0.295	0.275	0.264	0.588	0.624	0.544	0.559	0.431	0.4	0.682	0.531	0.59	0.656
NCI-H1355	1.03	0.976	0.945	0.97	0.934	0.493	0.473	0.429	0.481	0.453	0.72	0.632	0.66	0.55	0.662	0.665	0.691	0.601	0.646	0.691
NCI-H358	0.502	0.503	0.445	0.534	0.508	0.35	0.395	0.337	0.311	0.36	0.704	0.575	0.677	0.803	0.836	0.709	0.659	0.686	0.614	0.611
PC-3 [JPC-3]	0.431	0.486	0.444	0.44	0.492	0.467	0.461	0.477	0.461	0.447	0.853	0.898	0.741	0.972	0.797	0.748	0.815	0.768	0.988	0.814
NCI-H2228	1.02	0.984	0.925	0.985	0.931	0.366	0.377	0.327	0.403	0.247	0.559	0.811	0.681	0.649	0.9	0.64	0.632	0.563	0.754	0.648
HOP-62	0.945	1.06	1.01	–	0.948	0.649	0.564	0.656	0.624	0.861	0.575	0.895	0.496	0.631	0.65	0.532	0.708	0.669	0.434	0.628
HARA	0.784	0.84	0.828	0.78	0.809	0.365	0.378	0.309	0.234	0.246	0.511	0.657	0.653	0.516	0.509	0.624	0.436	0.517	–	0.525
